Source: US7572768B2, “Methods for identifying compounds for regulating muscle mass or function using corticotropin releasing factor receptors” (priority 2001, dated 2009)

Assays:
[1] = system: glucocorticoid-induced muscle atrophy; test: mouse glucocorticoid-induced atrophy model; type: in vivo; conditions: male mice, dexamethasone 1.2 mg/kg/d in drinking water, 0.1-1.0 mg/kg/d by osmotic minipump, nine days
Experimental: Legend: A—water only with no dexamethasone included in drinking water (non-atrophied control); B—water+dexamethasone (atrophied control); C—sauvagine (0.1 mg/kg/d)+dexamethasone; D—sauvagine (0.3 mg/kg/d)+dexamethasone; E—sauvagine (1.0 mg/kg/d)+dexamethasone; *—p≦0.05 compared to water; #—p≦0.05 compared to water+dexamethasone. Following the addition of the glucocorticoid, dexamethasone, to the drinking water (1.2 mg/kg/d), male mice were dosed with the above indicated agents or vehicle control (physiological saline) by continuous infusion using an Alzet osmotic minipump at 5 μl/hr until the end of the experimental period (without additional theophylline). The daily delivered dose of sauvagine is as indicated above. Minipump implantation was performed at the time of initiation of dexamethasone exposure. Nine days following the initiation of dosing sauvagine, the medial gastrocnemius and tibialis anterior muscles were removed and weighed to determine the degree of atrophy.
The glucocorticoid-induced atrophy model involves the administration of a glucocorticoid to the test animal, e.g., 1.2 mg/kg/day of dexamethasone in the drinking water. […] At various times following glucocorticoid administration, the extent of atrophy in the affected muscles is analyzed as described above for the denervation model.

[2] = system: disuse-induced atrophy of skeletal muscle; test: mouse leg casting disuse atrophy model; type: in vivo; conditions: ten days
Experimental: (§1) Legend: A—physiological saline (control); B—theophylline; C—sauvagine (0.03 mg/kg)+theophylline; D—sauvagine (0.1 mg/kg)+theophylline; E—sauvagine (0.3 mg/kg)+theophylline; *—p≦0.05 compared to saline. Following casting of the right hind leg, male mice were injected subcutaneously in the midscapular region twice daily, with sauvagine or vehicle control (physiological saline) for ten days at the daily delivered dose indicated. Sauvagine was co-administered with twice daily intra-peritoneal dosing of the phosphodiesterase inhibitor theophylline (30 mg/kg). On day ten, the medial gastrocnemius and tibialis anterior muscles were removed and weighed to determine the degree of atrophy.
as §1, with “B—urocortin” for “B—theophylline; C—sauvagine (0.03 mg/kg)+theophylline; D—sauvagine (0.1 mg/kg)+theophylline; E—sauvagine”, “urocortin” for “sauvagine”, “days. Urocortin was administered” for “days”, “doses indicated in the description of FIGS. 6A and 6B. Urocortin” for “daily delivered dose indicated. Sauvagine”
Legend: A—non casted muscle control; B—casted muscle, saline control; C—casted muscle, sauvagine (0.3 mg/kg)+theophylline (30 mg/kg); *—p≦0.05 compared to saline. Following casting of the right hind leg, male mice were injected subcutaneously in the midscapular region twice daily, with either sauvagine or vehicle control (physiological saline) for ten days at the doses indicated above. Sauvagine was co-administered 30 mg/kg theophylline. On day ten, the EDL and soleus muscles were removed and absolute force and mass measurements taken to determine the degree of atrophy.
The leg casting disuse atrophy model involves casting one hind leg of an animal from the knee down through the foot. Typically, muscle mass is reduced 20-40% after ten days of casting. Following casting, test compounds are administered by injection or by continuous infusion via implantation of an osmotic minipump (e.g., Alzet, Palo Alto, Calif.) to determine their effect on leg casting induced skeletal muscle atrophy. At various times following leg casting, the extent of atrophy in the affected muscles is analyzed as described above for the denervation model.
The extensor digitorum longus (EDL) and soleus muscles are removed, tendon-to-tendon from the casted mouse leg. A silk suture is tied to each tendon of the isolated muscles and the muscles are placed into a plexiglass chamber filled with Ringer solution (137 mM sodium chloride, 24 mM sodium bicarbonate, 11 mM glucose, 5 mM potassium chloride, 1 mM magnesium sulfate, 1 mM sodium phosphate, 0.025 mM tubocurarine, all at pH 7.4 and oxygenated with 95% oxygen/5% carbon dioxide) constantly bubbled with 95% oxygen/5% carbon dioxide maintained at 25° C. Muscles are aligned horizontally between a servomotor lever arm (Model 305B-LR Cambridge Technology Inc., Watertown Mass., USA) and the stainless steel hook of a force transducer (Model BG-50; Kulite Semiconductor Products Inc., Leonia, N.J., USA) and field stimulated by pulses transmitted between two platinum electrodes placed longitudinally on either side of the muscle. Square wave pulses (0.2 ms duration) generated by a personal computer with a Labview board (Model PCI-MIO 16E-4), Labview Inc., Austin, Tex., USA) are amplified (Acurus power amplifier model A25, Dobbs Ferry, N.Y., USA) to increase titanic contraction. Stimulation voltage and muscle length (Lo) are adjusted to obtain maximum isometric twitch force. Maximum titanic force production (Po) is determined from the plateau of the frequency-force relationship.

[3] = FIG. 9A, male mice, 0.3 mg/kg s.c. twice daily + theophylline 30 mg/kg

**Q.** Which results are given for `CC[C@H](C)[C@H](NC(=O)[C@@H](NC(=O)[C@H](CC(=O)O)NC(=O)[C@H](CC(C)C)NC(=O)[C@H](CC(C)C)NC(=O)[C@H](CC(C)C)NC(=O)[C@H](CCCNC(=N)N)NC(=O)[C@H](CC(N)=O)NC(=O)[C@H](CC(N)=O)NC(=O)[C@H](C)NC(=O)[C@H](C)NC(=O)[C@H](CCC(N)=O)NC(=O)[C@H](CCC(N)=O)NC(=O)[C@H](CCCCN)NC(=O)[C@H](CCC(=O)O)NC(=O)[C@H](CCCCN)NC(=O)[C@H](CCC(=O)O)NC(=O)[C@H](CCC(N)=O)NC(=O)[C@H](CCCCN)NC(=O)[C@H](CCC(=O)O)NC(=O)[C@@H](NC(=O)[C@H](CCC(=O)O)NC(=O)[C@@H](NC(=O)[C@H](CCSC)NC(=O)[C@H](CCCCN)NC(=O)[C@H](CCCNC(=N)N)NC(=O)[C@H](CC(C)C)NC(=O)[C@H](CC(C)C)NC(=O)[C@H](CCC(=O)O)NC(=O)[C@H](CC(C)C)NC(=O)[C@H](CO)NC(=O)[C@H](CC(C)C)NC(=O)[C@H](CC(=O)O)NC(=O)[C@@H](NC(=O)[C@H](CO)NC(=O)[C@@H](NC(=O)[C@@H]1CCCN1C(=O)[C@@H]1CCCN1C(=O)CNC(=O)[C@@H]1CCC(=O)N1)[C@@H](C)CC)[C@@H](C)CC)[C@@H](C)CC)[C@@H](C)CC)[C@@H](C)O)C(N)=O` [sauvagine]?
**A.** glucocorticoid-induced atrophy of the tibialis anterior muscle (muscle weight) ([1]; FIG. 3A): inhibits glucocorticoid-induced muscle atrophy; glucocorticoid-induced atrophy of the medial gastrocnemius muscle (muscle weight) ([1]; FIG. 3B): inhibits glucocorticoid-induced muscle atrophy; disuse-induced atrophy of the tibialis anterior muscle (muscle weight) ([2]; FIG. 4A, casted leg, male mice, 0.03-0.3 mg/kg s.c. twice daily + theophylline 30 mg/kg i.p.): inhibits disuse-induced atrophy; hypertrophy of the tibialis anterior muscle of the non-casted leg ([2]; FIG. 4A, non-casted leg, 0.03-0.3 mg/kg s.c. twice daily + theophylline 30 mg/kg i.p.): statistically significant hypertrophy; disuse-induced atrophy of the medial gastrocnemius muscle (muscle weight) ([2]; FIG. 4B, casted leg, male mice, 0.03-0.3 mg/kg s.c. twice daily + theophylline 30 mg/kg i.p.): inhibits disuse-induced atrophy; hypertrophy of the medial gastrocnemius muscle of the non-casted leg ([2]; FIG. 4B, non-casted leg, 0.03-0.3 mg/kg s.c. twice daily + theophylline 30 mg/kg i.p.): statistically significant hypertrophy; disuse-induced loss of EDL muscle mass [2, 3]: inhibits disuse-induced loss; disuse-induced loss of soleus muscle mass [2, 3]: inhibits disuse-induced loss; loss of muscle function as assessed by measurement of absolute force ([2]; FIG. 9B, EDL and soleus muscles, 0.3 mg/kg s.c. twice daily + theophylline 30 mg/kg): inhibits loss of muscle function
